Results reported in patent publication US9072734B2, “Quaternary ammonium salt compounds” (Teijin Pharma Limited, priority 2009, dated 2015).
Structures can show the parent of a compound that is named as a salt.

Columns and labels:
[1] = target: T1, human M3 muscarinic receptor (Homo sapiens, UniProt P20309); assay: Inhibitory effect on methacholine-induced calcium influx, FLIPR assay, CHO-K1 cells stably expressing the human M3 muscarinic receptor; assay type: cell-based; settings: inhibition of calcium influx induced by methacholine
T1 construct: expressed in transfected cells; host or cells: CHO-K1
Summary of the method: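 Dye-loaded hM3 CHO-K1 cells were preincubated 180 s with compound solutions prepared at 10 two-fold concentrations (0.01–1000 nM). A 30 nM methacholine solution was then added. Fluorescence was traced for 170 s; max−min signal gave % inhibition against agonist and no-agonist controls, and IC50 came from a four-parameter logistic fit.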

[2] = target: T2, human β2 adrenergic receptor (Homo sapiens, UniProt P07550); assay: Whole-cell cAMP Flashplate assay using CHO-K1 cells stably expressing human β2 adrenergic receptor; assay type: cell-based; settings: cAMP production
T2 construct: expressed in transfected cells; host or cells: CHO-K1
T2 sequence (P07550 whole entry): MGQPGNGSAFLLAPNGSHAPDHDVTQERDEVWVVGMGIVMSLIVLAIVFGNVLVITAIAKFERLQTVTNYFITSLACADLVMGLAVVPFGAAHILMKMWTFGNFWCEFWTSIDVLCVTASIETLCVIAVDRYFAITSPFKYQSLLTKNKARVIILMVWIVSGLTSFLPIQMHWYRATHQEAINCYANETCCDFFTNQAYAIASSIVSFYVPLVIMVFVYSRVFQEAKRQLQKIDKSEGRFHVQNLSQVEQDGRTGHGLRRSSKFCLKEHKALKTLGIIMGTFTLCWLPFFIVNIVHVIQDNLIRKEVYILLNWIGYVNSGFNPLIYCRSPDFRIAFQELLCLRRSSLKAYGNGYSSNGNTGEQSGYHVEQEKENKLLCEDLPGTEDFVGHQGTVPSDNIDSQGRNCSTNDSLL

T1 sequence (P20309 whole entry): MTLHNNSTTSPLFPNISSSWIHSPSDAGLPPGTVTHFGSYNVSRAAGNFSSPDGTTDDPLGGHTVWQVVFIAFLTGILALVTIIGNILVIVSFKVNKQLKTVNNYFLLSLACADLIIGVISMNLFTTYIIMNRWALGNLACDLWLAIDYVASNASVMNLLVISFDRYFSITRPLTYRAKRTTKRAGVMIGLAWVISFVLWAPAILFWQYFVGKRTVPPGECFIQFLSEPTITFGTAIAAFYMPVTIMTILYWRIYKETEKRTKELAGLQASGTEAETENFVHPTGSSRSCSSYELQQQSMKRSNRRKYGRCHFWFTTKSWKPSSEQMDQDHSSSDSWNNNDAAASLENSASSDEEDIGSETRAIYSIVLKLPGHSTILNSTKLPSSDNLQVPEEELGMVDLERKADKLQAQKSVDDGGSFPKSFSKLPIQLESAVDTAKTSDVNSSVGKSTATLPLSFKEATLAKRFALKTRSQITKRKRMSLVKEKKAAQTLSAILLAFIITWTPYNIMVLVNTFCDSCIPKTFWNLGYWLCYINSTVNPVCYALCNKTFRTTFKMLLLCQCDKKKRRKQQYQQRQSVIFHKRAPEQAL

Compound	IC50 [1]	EC50 [2]
COc1cc(NC(=O)CCCc2ccc(-c3ccccc3)c(NC(=O)OC3C[C@H]4CC[C@H](C3)[N+]4(C)C)c2)c(Cl)cc1CNC[C@H](O)c1ccc(O)c2[nH]c(=O)ccc12 (stereo partly drawn) [Example 48, (1R,3R)-3-{[5-(3-{[2-chloro-4-({[(2R)-2-hydroxy-2-(8-hydroxy-2-oxo-1,2-dihydroquinolin-5-yl)ethyl]amino}methyl)-5-methoxyphenyl]carbamoyl}propyl)-2-phenylphenyl]carbamoyl}oxy)-8,8-dimethyl-8-azabicyclo[3.2.1]nonan-8-ium trifluoroacetate]	0.0217 µM	0.0004 µM
Cc1cc(CNC[C@H](O)c2ccc(O)c3[nH]c(=O)ccc23)ccc1NC(=O)CCCc1ccc(-c2ccccc2)c(NC(=O)OC2CC[N+](C)(C)CC2)c1 [Example 22, 4-({[5-(3-{[4-({[(2R)-2-hydroxy-2-(8-hydroxy-2-oxo-1,2-dihydroquinolin-5-yl)ethyl]amino}methyl)-2-methylphenyl]carbamoyl}propyl)-2-phenylphenyl]carbamoyl}oxy)-1,1-dimethylpiperidin-1-ium trifluoroacetate]	0.0158 µM	0.0022 µM
C[N+]1(C)[C@@H]2C[C@@H](OC(=O)Nc3ccc(CCCC(=O)Nc4ccc5cc(CNC[C@H](O)c6ccc(O)c7[nH]c(=O)ccc67)ccc5c4)cc3-c3ccccc3)C[C@H]1[C@@H]1O[C@@H]12 [Example 56, (1R,2R,4S,5S,7S)-7-({[4-(3-{[6-({[(2R)-2-hydroxy-2-(8-hydroxy-2-oxo-1,2-dihydroquinolin-5-yl)ethyl]amino}methyl)naphthalen-2-yl]carbamoyl}propyl)-2-phenylphenyl]carbamoyl}oxy)-9,9-dimethyl-3-oxa-9-azatricyclo[3.3.1.0^2,4]nonan-9-ium trifluoroacetate]	0.0641 µM	0.0009 µM
COc1cc(NC(=O)CCCc2ccc(-c3ccccc3)c(NC(=O)O[C@@H]3C[C@@H]4[C@H]5O[C@H]5[C@H](C3)[N+]4(C)C)c2)c(Cl)cc1CNC[C@H](O)c1ccc(O)c2[nH]c(=O)ccc12 [Example 34, (1R,2R,4S,5S,7S)-7-({[5-(3-{[2-chloro-4-({[(2R)-2-hydroxy-2-(8-hydroxy-2-oxo-1,2-dihydroquinolin-5-yl)ethyl]amino}methyl)-5-methoxyphenyl]carbamoyl}propyl)-2-phenylphenyl]carbamoyl}oxy)-9,9-dimethyl-3-oxa-9-azatricyclo[3.3.1.0^2,4]nonan-9-ium trifluoroacetate]	0.022 µM	0.0012 µM
C[N+]1(C)[C@@H]2CC(OC(=O)Nc3cc(CCC(=O)Nc4ccc(CNC[C@H](O)c5ccc(O)c6[nH]c(=O)ccc56)cc4Cl)ccc3-c3ccccc3)C[C@H]1[C@@H]1O[C@@H]12 (stereo partly drawn) [Example 44, (1R,2R,4S,5S,7S)-7-({[5-(2-{[2-chloro-4-({[(2R)-2-hydroxy-2-(8-hydroxy-2-oxo-1,2-dihydroquinolin-5yl)ethyl]amino}methyl)phenyl]carbamoyl}ethyl)-2-phenylphenyl]carbamoyl}oxy)-9,9-dimethyl-3-oxa-9-azatricyclo[3.3.1.0^2,4]nonan-9-ium trifluoroacetate]	0.0139 µM	0.0017 µM
COc1cc(NC(=O)CCCc2ccc(NC(=O)O[C@@H]3C[C@@H]4[C@H]5O[C@H]5[C@H](C3)[N+]4(C)C)c(-c3ccccc3)c2)c(Cl)cc1CNC[C@H](O)c1ccc(O)c2[nH]c(=O)ccc12 [Example 55, (1R,2R,4S,5S,7S)-7-({[4-(3-{[2-chloro-4-({[(2R)-2-hydroxy-2-(8-hydroxy-2-oxo-1,2-dihydroquinolin-5-yl)ethyl]amino}methyl)-5-methoxyphenyl]carbamoyl}propyl)-2-phenylphenyl]carbamoyl}oxy)-9,9-dimethyl-3-oxa-9-azatricyclo[3.3.1.0^2,4]nonan-9-ium trifluoroacetate]	0.0518 µM	0.0002 µM
COc1cc(NC(=O)CCc2ccc(-c3ccccc3)c(NC(=O)O[C@@H]3C[C@@H]4[C@H]5O[C@H]5[C@H](C3)[N+]4(C)C)c2)c(Cl)cc1CNC[C@H](O)c1ccc(O)c2[nH]c(=O)ccc12 [Example 46, (1R,2R,4S,5S,7S)-7-({[5-(2-{[2-chloro-4-({[(2R)-2-hydroxy-2-(8-hydroxy-2-oxo-1,2-dihydroquinolin-5-yl)ethyl]amino}methyl)-5-methoxyphenyl]carbamoyl}ethyl)-2-phenylphenyl]carbamoyl}oxy)-9,9-dimethyl-3-oxa-9-azatricyclo[3.3.1.0^2,4]nonan-9-ium trifluoroacetate]	0.0165 µM	0.0014 µM
C[N+]1(C)CCC(OC(=O)Nc2cc(CCC(=O)Nc3ccc(CNC[C@H](O)c4ccc(O)c5[nH]c(=O)ccc45)cc3Cl)ccc2-c2ccccc2)CC1 [Example 9, 4-({[5-(2-{[2-chloro-({[(2R)-2-hydroxy-2-(8-hydroxy-2-oxo-1,2-dihydroquinolin-5-yl)ethyl]amino}methyl)phenyl]carbamoyl}ethyl)-2-phenylphenyl]carbamoyl}oxy)-1,1-dimethylpiperidin-1-ium trifluoroacetate]	0.0101 µM	0.0019 µM
C[N+]1(C)[C@@H]2CC(OC(=O)Nc3cc(CCC(=O)Nc4ccc(CCCNC[C@H](O)c5ccc(O)c6[nH]c(=O)ccc56)cc4)ccc3-c3ccccc3)C[C@H]1[C@@H]1O[C@@H]12 (stereo partly drawn) [Example 73, (1R,2R,4S,5S,7S)-7-({[5-(2-{[4-(3-{[(2R)-2-hydroxy-2-(8-hydroxy-2-oxo-1,2-dihydroquinolin-5-yl)ethyl]amino}propyl)phenyl]carbamoyl}ethyl)-2-phenylphenyl]carbamoyl}oxy)-9,9-dimethyl-3-oxa-9-azatricyclo[3.3.1.0^2,4]nonan-9-ium trifluoroacetate]	0.0275 µM	0.01 µM
C[N+]1(C)CCC(OC(=O)Nc2cc(CCC(=O)Nc3ccc(CCCNC[C@H](O)c4ccc(O)c5[nH]c(=O)ccc45)cc3)ccc2-c2ccccc2)CC1 [Example 62, 4-({[5-(2-{[4-(3-{[(2R)-2-hydroxy-2-(8-hydroxy-2-oxo-1,2-dihydroquinolin-5-yl)ethyl]amino}propyl)phenyl]carbamoyl}ethyl)-2-phenylphenyl]carbamoyl}oxy)-1,1-dimethylpiperidin-1-ium trifluoroacetate]	0.0513 µM	0.0015 µM
C[N+]1(C)CCC(OC(=O)Nc2cc(OCCCCCCCCNC[C@H](O)c3ccc(O)c4[nH]c(=O)ccc34)ccc2-c2ccccc2)CC1 [Example 58, 4-[({5-[(8-{[(2R)-2-hydroxy-2-(8-hydroxy-2-oxo-1,2-dihydroquinolin-5-yl)ethyl]amino}octyl)oxy]-2-phenylphenyl}carbamoyl)oxy]-1,1-dimethylpiperidin-1-ium trifluoroacetate]	0.0464 µM	0.0006 µM
C[N+]1(C)CCC(OC(=O)Nc2cc(CNC(=O)COc3ccc(CNC[C@H](O)c4ccc(O)c5[nH]c(=O)ccc45)cc3)ccc2-c2ccccc2)CC1 [Example 81, 4-({[5-({2-[4-({[(2R)-2-hydroxy-2-(8-hydroxy-2-oxo-1,2-dihydroquinolin-5-yl)ethyl]amino}methyl)phenoxy]acetamide}methyl)-2-phenylphenyl]carbamoyl}oxy)-1,1-dimethylpiperidin-1-ium trifluoroacetate]	0.0251 µM	0.0087 µM
Cc1cc(CNC[C@H](O)c2ccc(O)c3[nH]c(=O)ccc23)ccc1NC(=O)CCc1ccc(-c2ccccc2)c(NC(=O)OC2C[C@@H]3[C@H]4O[C@H]4[C@H](C2)[N+]3(C)C)c1 (stereo partly drawn) [Example 43, (1R,2R,4S,5S,7S)-7-({[5-(2-{[4-({[(2R)-2-hydroxy-2-(8-hydroxy-2-oxo-1,2-dihydroquinolin-5-yl)ethyl]amino}methyl)-2-methylphenyl]carbamoyl}ethyl)-2-phenylphenyl]carbamoyl}oxy)-9,9-dimethyl-3-oxa-9-azatricyclo[3.3.1.0^2,4]nonan-9-ium trifluoroacetate]	0.0085 µM	0.003 µM
COc1cc(CNC[C@H](O)c2ccc(O)c3[nH]c(=O)ccc23)ccc1NC(=O)CCCc1ccc(-c2ccccc2)c(NC(=O)OC2C[C@@H]3[C@H]4O[C@H]4[C@H](C2)[N+]3(C)C)c1 (stereo partly drawn) [Example 38, (1R,2R,4S,5S,7S)-7-({[5-(3-{[4-({[(2R)-2-hydroxy-2-(8-hydroxy-2-oxo-1,2-dihydroquinolin-5-yl)ethyl]amino}methyl)-2-methoxyphenyl]carbamoyl}propyl)-2-phenylphenyl]carbamoyl}oxy)-9,9-dimethyl-3-oxa-9-azatricyclo[3.3.1.0^2,4]nonan-9-ium trifluoroacetate]	0.0156 µM	0.0106 µM
C[N+]1(C)[C@@H]2CC(OC(=O)Nc3cc(CCCC(=O)Nc4ccc(CNC[C@H](O)c5ccc(O)c6[nH]c(=O)ccc56)cc4Cl)ccc3-c3ccccc3)C[C@H]1[C@@H]1O[C@@H]12 (stereo partly drawn) [Example 37, (1R,2R,4S,5S,7S)-7-({[5-(3-{[2-chloro-4-({[(2R)-2-hydroxy-2-(8-hydroxy-2-oxo-1,2-dihydroquinolin-5-yl)ethyl]amino}methyl)phenyl]carbamoyl}propyl)-2-phenylphenyl]carbamoyl}oxy)-9,9-dimethyl-3-oxa-9-azatricyclo[3.3.1.0^2,4]nonan-9-ium trifluoroacetate]	0.0182 µM	0.004 µM
